Measured values reported in publication PMC8333062, “Chemical tools for epichaperome-mediated interactome dysfunctions of the central nervous system” (Nature Communications, 2021).

How the values were obtained:
Assay in all cases: scanEDGE off-target screen
Assay type in all cases: binding
97 kinases [1] = target: T1, 97 kinases (Homo sapiens, UniProt Q9BXA7); details: read-out: %Ctrl TSSK1B
T1 construct: purchased Ambit Biosciences (scanEDGE / KINOMEscan) scanEDGE 97 kinase panel; host or cells: T7 phage in E. coli BL21-derived host; remaining kinases in HEK-293 cells
T1 sequence (Q9BXA7 whole entry): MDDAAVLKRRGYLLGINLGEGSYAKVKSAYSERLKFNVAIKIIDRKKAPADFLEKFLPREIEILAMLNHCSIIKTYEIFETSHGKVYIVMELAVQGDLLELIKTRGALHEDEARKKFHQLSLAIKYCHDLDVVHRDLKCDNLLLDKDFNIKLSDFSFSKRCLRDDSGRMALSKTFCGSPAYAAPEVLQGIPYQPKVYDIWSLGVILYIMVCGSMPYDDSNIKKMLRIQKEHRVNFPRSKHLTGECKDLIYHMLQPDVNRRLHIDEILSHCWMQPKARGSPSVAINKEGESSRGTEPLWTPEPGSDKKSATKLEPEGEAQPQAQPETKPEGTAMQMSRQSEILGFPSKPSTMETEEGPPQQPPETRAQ

97 kinases [2] = target: T2, 97 kinases (Homo sapiens, UniProt Q9UPE1); details: read-out: %Ctrl SRPK3
T2 construct: purchased Ambit Biosciences (scanEDGE / KINOMEscan) scanEDGE 97 kinase panel; host or cells: T7 phage in E. coli BL21-derived host; remaining kinases in HEK-293 cells

97 kinases [3] = target: T3, 97 kinases (Homo sapiens, UniProt O15075); details: read-out: %Ctrl DCAMKL1
T3 construct: purchased Ambit Biosciences (scanEDGE / KINOMEscan) scanEDGE 97 kinase panel; host or cells: T7 phage in E. coli BL21-derived host; remaining kinases in HEK-293 cells

97 kinases [4] = target: T4, 97 kinases (Homo sapiens, UniProt P10721, T670I/V559D); details: read-out: %Ctrl KIT(V559D,T670I)
T4 construct: purchased Ambit Biosciences (scanEDGE / KINOMEscan) scanEDGE 97 kinase panel; host or cells: T7 phage in E. coli BL21-derived host; remaining kinases in HEK-293 cells
T4 sequence (P10721 26-976 V559D/T670I): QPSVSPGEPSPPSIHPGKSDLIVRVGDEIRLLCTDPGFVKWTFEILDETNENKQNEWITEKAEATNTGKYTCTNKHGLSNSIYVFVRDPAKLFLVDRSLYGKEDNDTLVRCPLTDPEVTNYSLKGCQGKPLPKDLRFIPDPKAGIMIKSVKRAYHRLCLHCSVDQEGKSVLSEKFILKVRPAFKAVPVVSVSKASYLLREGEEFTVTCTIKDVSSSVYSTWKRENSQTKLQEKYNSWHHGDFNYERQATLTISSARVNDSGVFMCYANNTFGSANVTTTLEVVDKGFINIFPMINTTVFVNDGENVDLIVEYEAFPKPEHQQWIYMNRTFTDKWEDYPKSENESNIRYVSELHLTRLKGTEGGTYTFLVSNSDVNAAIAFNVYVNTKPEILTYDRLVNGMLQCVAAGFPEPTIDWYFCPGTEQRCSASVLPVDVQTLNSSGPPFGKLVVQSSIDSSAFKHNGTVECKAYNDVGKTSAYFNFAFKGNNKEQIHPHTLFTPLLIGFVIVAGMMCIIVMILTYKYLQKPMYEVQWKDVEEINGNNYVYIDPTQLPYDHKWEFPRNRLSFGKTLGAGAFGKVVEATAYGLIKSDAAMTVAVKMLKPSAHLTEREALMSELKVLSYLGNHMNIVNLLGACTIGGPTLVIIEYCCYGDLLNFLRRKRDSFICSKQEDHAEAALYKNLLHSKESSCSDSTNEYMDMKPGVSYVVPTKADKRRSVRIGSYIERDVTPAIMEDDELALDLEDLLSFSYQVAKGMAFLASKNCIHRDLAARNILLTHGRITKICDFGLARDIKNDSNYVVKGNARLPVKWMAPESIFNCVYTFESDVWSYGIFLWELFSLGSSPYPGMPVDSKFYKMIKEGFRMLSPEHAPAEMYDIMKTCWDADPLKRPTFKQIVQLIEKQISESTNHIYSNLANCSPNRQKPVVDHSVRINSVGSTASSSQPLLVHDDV

97 kinases [5] = target: T5, 97 kinases (Homo sapiens, UniProt P27448); details: read-out: %Ctrl MARK3
T5 construct: purchased Ambit Biosciences (scanEDGE / KINOMEscan) scanEDGE 97 kinase panel; host or cells: T7 phage in E. coli BL21-derived host; remaining kinases in HEK-293 cells
T5 sequence (P27448 whole entry): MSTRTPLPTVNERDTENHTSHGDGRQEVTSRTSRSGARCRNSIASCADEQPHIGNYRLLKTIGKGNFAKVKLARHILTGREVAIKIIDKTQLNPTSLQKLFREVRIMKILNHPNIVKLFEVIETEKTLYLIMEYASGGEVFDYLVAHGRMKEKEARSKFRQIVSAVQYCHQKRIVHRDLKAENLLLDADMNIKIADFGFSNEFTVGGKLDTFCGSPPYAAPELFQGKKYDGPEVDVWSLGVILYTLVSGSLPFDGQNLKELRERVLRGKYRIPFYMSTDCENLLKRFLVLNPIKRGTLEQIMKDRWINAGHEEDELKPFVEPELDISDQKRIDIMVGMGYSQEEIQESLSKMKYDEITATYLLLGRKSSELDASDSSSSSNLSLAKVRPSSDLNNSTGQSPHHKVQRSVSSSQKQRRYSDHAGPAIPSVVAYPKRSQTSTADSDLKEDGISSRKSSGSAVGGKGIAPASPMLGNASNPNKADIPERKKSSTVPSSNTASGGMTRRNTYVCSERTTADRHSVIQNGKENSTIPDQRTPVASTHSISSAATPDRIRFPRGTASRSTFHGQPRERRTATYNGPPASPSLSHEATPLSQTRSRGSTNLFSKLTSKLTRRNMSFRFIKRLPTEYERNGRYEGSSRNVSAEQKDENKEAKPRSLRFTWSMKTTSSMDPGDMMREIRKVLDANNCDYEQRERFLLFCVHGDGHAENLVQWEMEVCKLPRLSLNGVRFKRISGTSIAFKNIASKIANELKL

97 kinases [6] = target: T6, 97 kinases (Homo sapiens, UniProt P49841); details: read-out: %Ctrl GSK3B
T6 construct: purchased Ambit Biosciences (scanEDGE / KINOMEscan) scanEDGE 97 kinase panel; host or cells: T7 phage in E. coli BL21-derived host; remaining kinases in HEK-293 cells

97 kinases [7] = target: T7, 97 kinases (Homo sapiens, UniProt Q9Y6R4); details: read-out: %Ctrl MAP3K4
T7 construct: purchased Ambit Biosciences (scanEDGE / KINOMEscan) scanEDGE 97 kinase panel; host or cells: T7 phage in E. coli BL21-derived host; remaining kinases in HEK-293 cells

97 kinases [8] = target: T8, 97 kinases (Homo sapiens, UniProt Q06187); details: read-out: %Ctrl BTK
T8 construct: purchased Ambit Biosciences (scanEDGE / KINOMEscan) scanEDGE 97 kinase panel; host or cells: T7 phage in E. coli BL21-derived host; remaining kinases in HEK-293 cells

97 kinases [9] = target: T9, 97 kinases (Homo sapiens, UniProt Q9H093); details: read-out: %Ctrl SNARK
T9 construct: purchased Ambit Biosciences (scanEDGE / KINOMEscan) scanEDGE 97 kinase panel; host or cells: T7 phage in E. coli BL21-derived host; remaining kinases in HEK-293 cells

97 kinases [10] = target: T10, 97 kinases (Homo sapiens, UniProt P48730); details: read-out: %Ctrl CSNK1D
T10 construct: purchased Ambit Biosciences (scanEDGE / KINOMEscan) scanEDGE 97 kinase panel; host or cells: T7 phage in E. coli BL21-derived host; remaining kinases in HEK-293 cells

97 kinases [11] = target: T11, 97 kinases (Homo sapiens, UniProt P21802); details: read-out: %Ctrl FGFR2
T11 construct: purchased Ambit Biosciences (scanEDGE / KINOMEscan) scanEDGE 97 kinase panel; host or cells: T7 phage in E. coli BL21-derived host; remaining kinases in HEK-293 cells

97 kinases [12] = target: T12, 97 kinases (Homo sapiens, UniProt Q13153); details: read-out: %Ctrl PAK1
T12 construct: purchased Ambit Biosciences (scanEDGE / KINOMEscan) scanEDGE 97 kinase panel; host or cells: T7 phage in E. coli BL21-derived host; remaining kinases in HEK-293 cells

97 kinases [13] = target: T13, 97 kinases (Homo sapiens, UniProt P04629); details: read-out: %Ctrl TRKA
T13 construct: purchased Ambit Biosciences (scanEDGE / KINOMEscan) scanEDGE 97 kinase panel; host or cells: T7 phage in E. coli BL21-derived host; remaining kinases in HEK-293 cells

97 kinases [14] = target: T14, 97 kinases (Homo sapiens, UniProt P07333); details: read-out: %Ctrl CSF1R
T14 construct: purchased Ambit Biosciences (scanEDGE / KINOMEscan) scanEDGE 97 kinase panel; host or cells: T7 phage in E. coli BL21-derived host; remaining kinases in HEK-293 cells

97 kinases [15] = target: T15, 97 kinases (Homo sapiens, UniProt Q00526); details: read-out: %Ctrl CDK3
T15 construct: purchased Ambit Biosciences (scanEDGE / KINOMEscan) scanEDGE 97 kinase panel; host or cells: T7 phage in E. coli BL21-derived host; remaining kinases in HEK-293 cells

97 kinases [16] = target: T16, 97 kinases (Homo sapiens, UniProt O14757); details: read-out: %Ctrl CHEK1
T16 construct: purchased Ambit Biosciences (scanEDGE / KINOMEscan) scanEDGE 97 kinase panel; host or cells: T7 phage in E. coli BL21-derived host; remaining kinases in HEK-293 cells

97 kinases [17] = target: T17, 97 kinases (Homo sapiens, UniProt O96013); details: read-out: %Ctrl PAK4
T17 construct: purchased Ambit Biosciences (scanEDGE / KINOMEscan) scanEDGE 97 kinase panel; host or cells: T7 phage in E. coli BL21-derived host; remaining kinases in HEK-293 cells

97 kinases [18] = target: T18, 97 kinases (Homo sapiens, UniProt Q9BWU1); details: read-out: %Ctrl CDK11
T18 construct: purchased Ambit Biosciences (scanEDGE / KINOMEscan) scanEDGE 97 kinase panel; host or cells: T7 phage in E. coli BL21-derived host; remaining kinases in HEK-293 cells

97 kinases [19] = target: T19, 97 kinases (Homo sapiens, UniProt Q8NI60); details: read-out: %Ctrl ADCK3
T19 construct: purchased Ambit Biosciences (scanEDGE / KINOMEscan) scanEDGE 97 kinase panel; host or cells: T7 phage in E. coli BL21-derived host; remaining kinases in HEK-293 cells

97 kinases [20] = target: T20, 97 kinases (Homo sapiens, UniProt O00750); details: read-out: %Ctrl PIK3C2B
T20 construct: purchased Ambit Biosciences (scanEDGE / KINOMEscan) scanEDGE 97 kinase panel; host or cells: T7 phage in E. coli BL21-derived host; remaining kinases in HEK-293 cells

97 kinases [21] = target: T21, 97 kinases (Homo sapiens, UniProt P43403); details: read-out: %Ctrl ZAP70
T21 construct: purchased Ambit Biosciences (scanEDGE / KINOMEscan) scanEDGE 97 kinase panel; host or cells: T7 phage in E. coli BL21-derived host; remaining kinases in HEK-293 cells

97 kinases [22] = target: T22, 97 kinases (Homo sapiens, UniProt P11309); details: read-out: %Ctrl PIM1
T22 construct: purchased Ambit Biosciences (scanEDGE / KINOMEscan) scanEDGE 97 kinase panel; host or cells: T7 phage in E. coli BL21-derived host; remaining kinases in HEK-293 cells
T22 sequence (P11309 whole entry): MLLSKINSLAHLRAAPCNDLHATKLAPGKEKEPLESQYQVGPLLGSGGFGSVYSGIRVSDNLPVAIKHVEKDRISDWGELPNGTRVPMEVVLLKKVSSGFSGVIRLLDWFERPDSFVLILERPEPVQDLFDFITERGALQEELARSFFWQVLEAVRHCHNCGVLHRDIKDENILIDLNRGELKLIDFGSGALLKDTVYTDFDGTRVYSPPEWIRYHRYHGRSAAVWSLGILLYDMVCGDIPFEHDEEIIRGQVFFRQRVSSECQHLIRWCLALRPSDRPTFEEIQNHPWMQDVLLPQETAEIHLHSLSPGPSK

97 kinases [23] = target: T23, 97 kinases (Homo sapiens, UniProt P06213); details: read-out: %Ctrl INSR
T23 construct: purchased Ambit Biosciences (scanEDGE / KINOMEscan) scanEDGE 97 kinase panel; host or cells: T7 phage in E. coli BL21-derived host; remaining kinases in HEK-293 cells

97 kinases [24] = target: T24, 97 kinases (Homo sapiens, UniProt P36897); details: read-out: %Ctrl TGFBR1
T24 construct: purchased Ambit Biosciences (scanEDGE / KINOMEscan) scanEDGE 97 kinase panel; host or cells: T7 phage in E. coli BL21-derived host; remaining kinases in HEK-293 cells

97 kinases [25] = target: T25, 97 kinases (Homo sapiens, UniProt Q05397); details: read-out: %Ctrl FAK
T25 construct: purchased Ambit Biosciences (scanEDGE / KINOMEscan) scanEDGE 97 kinase panel; host or cells: T7 phage in E. coli BL21-derived host; remaining kinases in HEK-293 cells

97 kinases [26] = target: T26, 97 kinases (Homo sapiens, UniProt P10721); details: read-out: %Ctrl KIT
T26 construct: purchased Ambit Biosciences (scanEDGE / KINOMEscan) scanEDGE 97 kinase panel; host or cells: T7 phage in E. coli BL21-derived host; remaining kinases in HEK-293 cells

97 kinases [27] = target: T27, 97 kinases (Homo sapiens, UniProt P27361); details: read-out: %Ctrl ERK1
T27 construct: purchased Ambit Biosciences (scanEDGE / KINOMEscan) scanEDGE 97 kinase panel; host or cells: T7 phage in E. coli BL21-derived host; remaining kinases in HEK-293 cells

97 kinases [28] = target: T28, 97 kinases (Homo sapiens, UniProt P36507); details: read-out: %Ctrl MEK2
T28 construct: purchased Ambit Biosciences (scanEDGE / KINOMEscan) scanEDGE 97 kinase panel; host or cells: T7 phage in E. coli BL21-derived host; remaining kinases in HEK-293 cells

97 kinases [29] = target: T29, 97 kinases (Homo sapiens, UniProt P00519, E255K); details: read-out: %Ctrl ABL1(E255K)-phosphorylated
T29 construct: purchased Ambit Biosciences (scanEDGE / KINOMEscan) scanEDGE 97 kinase panel; host or cells: T7 phage in E. coli BL21-derived host; remaining kinases in HEK-293 cells

97 kinases [30] = target: T30, 97 kinases (Homo sapiens, UniProt P51812); details: read-out: %Ctrl RSK2(Kin.Dom.1-N-terminal)
T30 construct: purchased Ambit Biosciences (scanEDGE / KINOMEscan) scanEDGE 97 kinase panel; host or cells: T7 phage in E. coli BL21-derived host; remaining kinases in HEK-293 cells

97 kinases [31] = target: T31, 97 kinases (Homo sapiens, UniProt Q9P1W9); details: read-out: %Ctrl PIM2
T31 construct: purchased Ambit Biosciences (scanEDGE / KINOMEscan) scanEDGE 97 kinase panel; host or cells: T7 phage in E. coli BL21-derived host; remaining kinases in HEK-293 cells

97 kinases [32] = target: T32, 97 kinases (Homo sapiens, UniProt P08581); details: read-out: %Ctrl MET
T32 construct: purchased Ambit Biosciences (scanEDGE / KINOMEscan) scanEDGE 97 kinase panel; host or cells: T7 phage in E. coli BL21-derived host; remaining kinases in HEK-293 cells
T32 sequence (P08581 25-1390): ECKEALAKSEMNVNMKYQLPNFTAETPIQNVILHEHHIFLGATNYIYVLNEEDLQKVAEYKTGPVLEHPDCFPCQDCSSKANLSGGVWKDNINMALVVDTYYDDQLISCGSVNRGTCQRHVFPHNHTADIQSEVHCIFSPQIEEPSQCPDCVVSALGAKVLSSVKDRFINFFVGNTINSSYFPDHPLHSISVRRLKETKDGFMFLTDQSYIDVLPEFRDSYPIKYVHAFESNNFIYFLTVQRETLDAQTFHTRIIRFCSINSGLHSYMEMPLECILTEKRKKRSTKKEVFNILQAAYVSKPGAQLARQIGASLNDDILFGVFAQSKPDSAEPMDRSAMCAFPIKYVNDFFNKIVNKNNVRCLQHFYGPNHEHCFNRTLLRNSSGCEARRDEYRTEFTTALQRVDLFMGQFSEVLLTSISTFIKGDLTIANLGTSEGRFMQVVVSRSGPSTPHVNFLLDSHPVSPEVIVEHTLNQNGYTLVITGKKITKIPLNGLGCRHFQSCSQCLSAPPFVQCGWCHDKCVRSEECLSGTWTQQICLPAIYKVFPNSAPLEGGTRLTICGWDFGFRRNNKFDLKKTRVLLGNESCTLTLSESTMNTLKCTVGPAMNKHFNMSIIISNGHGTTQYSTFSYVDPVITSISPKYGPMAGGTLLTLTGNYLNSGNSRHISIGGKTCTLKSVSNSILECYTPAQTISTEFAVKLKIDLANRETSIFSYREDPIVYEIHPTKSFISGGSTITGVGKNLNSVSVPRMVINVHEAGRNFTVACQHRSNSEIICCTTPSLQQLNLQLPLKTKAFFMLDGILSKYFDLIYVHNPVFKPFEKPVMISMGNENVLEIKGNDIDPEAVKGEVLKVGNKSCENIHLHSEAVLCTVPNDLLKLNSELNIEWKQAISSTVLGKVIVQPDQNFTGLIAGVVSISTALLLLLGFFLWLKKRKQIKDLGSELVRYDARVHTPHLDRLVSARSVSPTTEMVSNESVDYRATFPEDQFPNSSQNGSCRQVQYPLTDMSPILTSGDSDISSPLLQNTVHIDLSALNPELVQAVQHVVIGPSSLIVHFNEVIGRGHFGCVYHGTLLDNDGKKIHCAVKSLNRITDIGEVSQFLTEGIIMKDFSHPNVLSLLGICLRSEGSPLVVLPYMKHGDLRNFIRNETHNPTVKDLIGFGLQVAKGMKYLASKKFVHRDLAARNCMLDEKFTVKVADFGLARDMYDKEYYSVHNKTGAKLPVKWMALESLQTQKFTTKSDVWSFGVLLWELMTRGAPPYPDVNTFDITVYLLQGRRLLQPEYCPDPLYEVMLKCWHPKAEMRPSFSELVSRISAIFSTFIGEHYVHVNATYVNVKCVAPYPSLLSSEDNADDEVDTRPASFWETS

97 kinases [33] = target: T33, 97 kinases (Homo sapiens, UniProt P35968); details: read-out: %Ctrl VEGFR2
T33 construct: purchased Ambit Biosciences (scanEDGE / KINOMEscan) scanEDGE 97 kinase panel; host or cells: T7 phage in E. coli BL21-derived host; remaining kinases in HEK-293 cells
T33 sequence (P35968 20-1356): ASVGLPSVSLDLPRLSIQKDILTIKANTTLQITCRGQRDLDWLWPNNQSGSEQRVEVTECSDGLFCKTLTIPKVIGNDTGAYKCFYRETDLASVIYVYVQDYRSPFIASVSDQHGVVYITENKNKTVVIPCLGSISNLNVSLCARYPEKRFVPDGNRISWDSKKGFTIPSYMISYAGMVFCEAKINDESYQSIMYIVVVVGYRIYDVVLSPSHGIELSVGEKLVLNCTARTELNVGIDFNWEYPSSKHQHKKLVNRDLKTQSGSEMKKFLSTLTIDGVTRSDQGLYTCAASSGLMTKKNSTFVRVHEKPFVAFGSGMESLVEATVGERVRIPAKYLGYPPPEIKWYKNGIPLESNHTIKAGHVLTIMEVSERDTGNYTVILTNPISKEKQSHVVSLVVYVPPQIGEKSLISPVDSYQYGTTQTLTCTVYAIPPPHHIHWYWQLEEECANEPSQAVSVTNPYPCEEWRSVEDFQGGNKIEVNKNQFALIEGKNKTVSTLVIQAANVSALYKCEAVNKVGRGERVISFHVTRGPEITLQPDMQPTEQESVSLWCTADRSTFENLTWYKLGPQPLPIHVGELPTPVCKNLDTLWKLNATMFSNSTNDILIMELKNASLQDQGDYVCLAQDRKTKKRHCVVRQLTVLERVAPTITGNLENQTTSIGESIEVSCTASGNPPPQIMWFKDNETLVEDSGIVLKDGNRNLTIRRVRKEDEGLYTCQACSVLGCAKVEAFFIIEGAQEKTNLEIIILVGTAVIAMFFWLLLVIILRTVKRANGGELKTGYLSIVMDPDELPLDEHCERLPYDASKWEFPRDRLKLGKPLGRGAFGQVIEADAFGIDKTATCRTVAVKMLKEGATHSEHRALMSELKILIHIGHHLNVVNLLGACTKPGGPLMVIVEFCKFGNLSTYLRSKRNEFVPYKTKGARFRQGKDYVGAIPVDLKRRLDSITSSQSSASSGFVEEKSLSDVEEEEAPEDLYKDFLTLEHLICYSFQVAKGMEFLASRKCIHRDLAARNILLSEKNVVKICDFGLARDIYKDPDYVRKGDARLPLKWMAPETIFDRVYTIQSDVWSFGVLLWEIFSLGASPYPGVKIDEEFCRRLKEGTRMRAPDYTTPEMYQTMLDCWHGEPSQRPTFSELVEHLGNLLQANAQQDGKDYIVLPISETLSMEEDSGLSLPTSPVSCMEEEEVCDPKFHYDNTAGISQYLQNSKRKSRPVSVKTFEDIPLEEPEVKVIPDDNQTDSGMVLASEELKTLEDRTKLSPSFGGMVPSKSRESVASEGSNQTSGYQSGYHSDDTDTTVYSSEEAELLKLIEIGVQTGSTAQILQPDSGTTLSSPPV

97 kinases [34] = target: T34, 97 kinases (Homo sapiens, UniProt P04626); details: read-out: %Ctrl ERBB2
T34 construct: purchased Ambit Biosciences (scanEDGE / KINOMEscan) scanEDGE 97 kinase panel; host or cells: T7 phage in E. coli BL21-derived host; remaining kinases in HEK-293 cells

97 kinases [35] = target: T35, 97 kinases (Homo sapiens, UniProt Q9H4B4); details: read-out: %Ctrl PLK3
T35 construct: purchased Ambit Biosciences (scanEDGE / KINOMEscan) scanEDGE 97 kinase panel; host or cells: T7 phage in E. coli BL21-derived host; remaining kinases in HEK-293 cells

97 kinases [36] = target: T36, 97 kinases (Homo sapiens, UniProt O15530); details: read-out: %Ctrl PDPK1
T36 construct: purchased Ambit Biosciences (scanEDGE / KINOMEscan) scanEDGE 97 kinase panel; host or cells: T7 phage in E. coli BL21-derived host; remaining kinases in HEK-293 cells

97 kinases [37] = target: T37, 97 kinases (Homo sapiens, UniProt P12931); details: read-out: %Ctrl SRC
T37 construct: purchased Ambit Biosciences (scanEDGE / KINOMEscan) scanEDGE 97 kinase panel; host or cells: T7 phage in E. coli BL21-derived host; remaining kinases in HEK-293 cells

97 kinases [38] = target: T38, 97 kinases (Homo sapiens, UniProt P29317); details: read-out: %Ctrl EPHA2
T38 construct: purchased Ambit Biosciences (scanEDGE / KINOMEscan) scanEDGE 97 kinase panel; host or cells: T7 phage in E. coli BL21-derived host; remaining kinases in HEK-293 cells

CC(C)(C)CNCCn1c(Sc2cc3c(cc2I)OCO3)nc2c(N)ncnc21 [Compound 85] showed a remaining binding at 10 µM (97 kinases [1]) of 51%, a remaining binding at 10 µM (97 kinases [2]) of 100% and a remaining binding at 10 µM (97 kinases [3]) of 78%. It also gave a remaining binding at 10 µM (97 kinases [4]) of 96%, a remaining binding at 10 µM (97 kinases [5]) of 100% and a remaining binding at 10 µM (97 kinases [6]) of 88%. The remaining binding at 10 µM (97 kinases [7]) was 49%, the remaining binding at 10 µM (97 kinases [8]) was 100% and the remaining binding at 10 µM (97 kinases [9]) was 100%. It also gave a remaining binding at 10 µM (97 kinases [10]) of 91%, a remaining binding at 10 µM (97 kinases [11]) of 63% and a remaining binding at 10 µM (97 kinases [12]) of 92%. For the same compound, the remaining binding at 10 µM (97 kinases [13]) was 95%, the remaining binding at 10 µM (97 kinases [14]) was 94% and the remaining binding at 10 µM (97 kinases [15]) was 100%. For the same compound, the remaining binding at 10 µM (97 kinases [16]) was 100%, the remaining binding at 10 µM (97 kinases [17]) was 100% and the remaining binding at 10 µM (97 kinases [18]) was 90%. The remaining binding at 10 µM (97 kinases [19]) was 92%, the remaining binding at 10 µM (97 kinases [20]) was 96% and the remaining binding at 10 µM (97 kinases [21]) was 78%. The remaining binding at 10 µM (97 kinases [22]) was 79%, the remaining binding at 10 µM (97 kinases [23]) was 92% and the remaining binding at 10 µM (97 kinases [24]) was 63%. The remaining binding at 10 µM (97 kinases [25]) was 96%, the remaining binding at 10 µM (97 kinases [26]) was 99% and the remaining binding at 10 µM (97 kinases [27]) was 100%. For the same compound, the remaining binding at 10 µM (97 kinases [28]) was 76%, the remaining binding at 10 µM (97 kinases [29]) was 80% and the remaining binding at 10 µM (97 kinases [30]) was 84%. The remaining binding at 10 µM (97 kinases [31]) was 81%, the remaining binding at 10 µM (97 kinases [32]) was 100% and the remaining binding at 10 µM (97 kinases [33]) was 98%. It also gave a remaining binding at 10 µM (97 kinases [34]) of 100%, a remaining binding at 10 µM (97 kinases [35]) of 88% and a remaining binding at 10 µM (97 kinases [36]) of 77%. It also gave a remaining binding at 10 µM (97 kinases [37]) of 100% and a remaining binding at 10 µM (97 kinases [38]) of 91%.
